Experimental data taken from patent publication US5196513A, “Synthetic peptides derived from the beta-subunit of human thyroid stimulating hormone” (Mayo Foundation for Medical Education and Research, priority 1991, dated 1993).
Residues, ends and D or L forms follow the SMILES beside them.

Experiments:
[1] = target: T1, TSH receptor on human thyroid membranes (Homo sapiens, UniProt P16473); experiment: Human thyroid membrane TSH radio-receptor assay (inhibition of 125I-bTSH binding); conditions: for EC50: concentration inhibiting 125I-bTSH binding to human thyroid membrane by 50%, mean ± se of at least 3 assays; for Inhibition of TSH binding to human thyroid membrane (in words): human thyroid membrane RRA
T1 construct: Crude membrane preparations were prepared from the frozen tissue; from tissue; host or cells: human thyroid tissue (Graves' disease patients), crude 2000 x g membrane fraction
Experimental: Thyroid tissue from patients with Graves' disease was obtained at surgery and promptly frozen and maintained at -70° C. Crude membrane preparations were prepared from the frozen tissue as previously described, Takahashi et al., J. Clin. Endocrinol. Metab., 47:870-876 (1978), the disclosure of which is incorporated by reference herein. Briefly, the tissue was homogenized with a Polytron homogenizer (Brinkmann Instruments,Westbury, N.Y.), and the 2000×g fraction was collected by centrifugation, washed, and resuspended in 40 mM Tris, 200 mM sucrose, pH 7.4. Membrane preparations were maintained at -70° C. until assay.
(§1) Highly purified bTSH (30 U/mg, supplied by Dr. J. G. Pierce, formerly of UCLA) was radio-iodinated (Na^125 I, Amersham, Chicago) by a lactoperoxidase technique to a specific activity averaging 40-50 μCi/μg as previously described, Takahashi et al., supra, then purified by Sephadex G-100 chromatography.
(§2) The TSH radio-receptor assay (RRA) utilized for the studies has been well described previously; see Takahashi et al., supra and Morris et al., Endocrinology, 123:456-462 (1988), the disclosure of which is incorporated by reference herein. Briefly, for either human or porcine thyroid RRA, the incubation mixture consisted of the following: 10 mg equivalents of wet weight (mg eq) crude thyroid membrane preparation, 0.124 ng [^125 I]iodo-bTSH (approximately 20,000 cpm), 0.2% Triton X-100, and the noted amounts of synthetic peptides or unlabeled bTSH in 0.5 ml 40 mM Tris, 0.1% BSA, pH 7.4. Bound label was separated from free after 2 hrs incubation at 25° C. by addition of a 1 ml 30% polyethylene glycol (PEG, Baker, Phillipsburg, N.J.) 6000 in 1M NaCl and centrifugation. The resulting pellet was counted in a gamma counter. Non-specific binding was determined by addition of a 100 mU/ml crude bTSH (Sigma, St. Louis).

[2] = target: T2, porcine TSH receptor (porcine thyroid membranes) (Sus scrofa, UniProt Q8SPP9); experiment: Porcine thyroid membrane TSH radio-receptor assay (inhibition of 125I-bTSH binding); conditions: concentration inhibiting 125I-bTSH binding to porcine thyroid membrane by 50%; mean ± se of at least 3 assays
T2 construct: Frozen porcine thyroid glands were purchased; tissue Pel-Freez Biologicals; host or cells: porcine thyroid glands, crude membrane preparation
Description: Frozen porcine thyroid glands were purchased (Pel-Freez Biologicals, Rogers, Ak.) and prepared using the same procedures as for the human glands.
as §1, §2

FRTL5 cells = FRTL5 cells (Rattus norvegicus, UniProt P21463); experiment: TSab bioassay, inhibition of TSab-stimulated cAMP generation in FRTL5 cells; format: cell-based; conditions: for Serum samples in which TSab-stimulated cAMP was significantly inhibited (p<0.05) / samples tested: peptide 150 μg/ml; for Inhibition of TSab-stimulated cAMP generation (in words): peptide 50 and 150 μg/ml
Experimental: FRTL5 cells were cultured in Hams F-12 medium supplemented with 5% calf serum and a preparation containing 6 hormones (6H), including 10 mU/ml bTSH (Sigma, St. Louis, Mo.), as previously described. Ambesi-Impiombato et al., Proc. Natl. Acad. Sci. U.S.A., 77:3455 (1980), the disclosure of which is incorporated by reference herein. The cells were enzymatically removed from flasks and plated in 24 well plates containing 6H at a density of 150,000 cells per well. After 4 days, the cells were washed and the media replaced with media containing insulin only (1H). All subsequent assays were performed on cells deprived of TSH for 5-7 days.
Serum samples from 15 patients with elevated TSab levels were selected from the clinical chemistry laboratory. The TSab values, expressed as an index, [formula] 63:707 (1988)]ranged from 10-20 with an average of 13.8±3.3. Normal serum has an index of less than 1.3.
The bioassay described by Kasagi et al., supra, with modifications as previously noted above, was used. The immunoglobulins were precipitated from 2 ml of TSab-containing serum with 6 ml of polyethylene glycol 6,000 (Baker; Phillipsburg, N.J.), centrifuged at 3,000×g for 20 minutes, and resuspended in 4 ml of NaCl-free HBSS with 0.5 mM IBMX and 0.5% BSA. The plated cells were washed with NaCl-free HBSS and the crude immunoglobulin extract, mixed with various concentrations of β-subunit peptides, was added in duplicate to the wells (total volume 200 μl/well). The cells were incubated for 2 hours at 37° C. and 5% CO2. The samples were then removed from the cells and a portion diluted 1:50 in NaOAc buffer, pH 6.2. A 25 μl aliquot of this was then used in a cAMP RIA as described above. The basal cAMP levels were determined for each plate of cells in the absence of immunoglobulin extract and β-peptides. A maximal cAMP level was attained by stimulating the cells with the immunoglobulin extract only. The percent increase in cAMP levels above basal was calculated as: [formula] as previously described (see Morris et al., supra). The percent inhibition of cAMP production by the β-subunit peptides was calculated as described above for TSH-stimulated cells, substituting pmol cAMP crude immunoglobulin for pmol cAMP TSH.
Inhibition of TSab activity was tested by comparing the replicates of cAMP levels generated in the presence of peptide to those generated by TSab alone using Student's T test for unpaired samples. Mean inhibition by the various doses of synthetic peptide for the patient group was tested by comparison with maximum cAMP response within each patient sample using the T test for paired samples.

Sequence of FRTL5 cells (P21463 22-764): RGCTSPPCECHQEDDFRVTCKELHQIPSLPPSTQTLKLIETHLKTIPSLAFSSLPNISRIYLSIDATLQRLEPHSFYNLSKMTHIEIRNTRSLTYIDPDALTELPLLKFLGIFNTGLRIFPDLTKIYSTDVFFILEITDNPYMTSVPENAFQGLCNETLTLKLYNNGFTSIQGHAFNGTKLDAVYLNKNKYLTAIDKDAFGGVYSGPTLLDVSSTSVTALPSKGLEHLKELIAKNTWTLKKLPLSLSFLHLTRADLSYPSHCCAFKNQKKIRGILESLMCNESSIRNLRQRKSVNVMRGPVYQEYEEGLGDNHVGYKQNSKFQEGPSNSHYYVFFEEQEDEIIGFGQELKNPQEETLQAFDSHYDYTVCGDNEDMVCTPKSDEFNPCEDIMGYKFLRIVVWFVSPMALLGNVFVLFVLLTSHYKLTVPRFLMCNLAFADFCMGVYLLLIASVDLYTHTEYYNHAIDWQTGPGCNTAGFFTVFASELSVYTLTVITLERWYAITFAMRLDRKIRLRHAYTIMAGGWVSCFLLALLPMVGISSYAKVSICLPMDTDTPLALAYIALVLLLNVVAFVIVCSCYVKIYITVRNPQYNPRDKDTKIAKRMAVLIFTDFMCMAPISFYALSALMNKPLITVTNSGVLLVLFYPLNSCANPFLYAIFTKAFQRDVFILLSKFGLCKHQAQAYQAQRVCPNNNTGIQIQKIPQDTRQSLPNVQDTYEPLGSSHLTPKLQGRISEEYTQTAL
T2 sequence (Q8SPP9 22-764): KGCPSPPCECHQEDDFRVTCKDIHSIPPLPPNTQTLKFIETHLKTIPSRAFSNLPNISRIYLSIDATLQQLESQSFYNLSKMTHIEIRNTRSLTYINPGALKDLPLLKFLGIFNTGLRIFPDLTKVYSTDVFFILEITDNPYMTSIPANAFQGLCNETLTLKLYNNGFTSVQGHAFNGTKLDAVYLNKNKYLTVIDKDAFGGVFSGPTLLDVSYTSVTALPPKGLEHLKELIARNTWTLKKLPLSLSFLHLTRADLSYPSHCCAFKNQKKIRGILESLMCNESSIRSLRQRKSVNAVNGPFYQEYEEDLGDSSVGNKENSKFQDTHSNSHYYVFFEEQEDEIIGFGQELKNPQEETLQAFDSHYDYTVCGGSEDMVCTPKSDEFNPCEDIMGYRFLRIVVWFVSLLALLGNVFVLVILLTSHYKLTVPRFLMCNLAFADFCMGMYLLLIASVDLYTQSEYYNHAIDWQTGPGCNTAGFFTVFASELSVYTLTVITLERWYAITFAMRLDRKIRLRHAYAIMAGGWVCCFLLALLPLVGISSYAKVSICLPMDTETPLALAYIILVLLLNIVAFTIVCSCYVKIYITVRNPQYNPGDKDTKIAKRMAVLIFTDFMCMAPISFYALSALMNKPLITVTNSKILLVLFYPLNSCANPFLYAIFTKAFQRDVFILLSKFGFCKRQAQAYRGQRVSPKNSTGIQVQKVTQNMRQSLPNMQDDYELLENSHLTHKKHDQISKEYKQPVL
T1 sequence (P16473 21-764): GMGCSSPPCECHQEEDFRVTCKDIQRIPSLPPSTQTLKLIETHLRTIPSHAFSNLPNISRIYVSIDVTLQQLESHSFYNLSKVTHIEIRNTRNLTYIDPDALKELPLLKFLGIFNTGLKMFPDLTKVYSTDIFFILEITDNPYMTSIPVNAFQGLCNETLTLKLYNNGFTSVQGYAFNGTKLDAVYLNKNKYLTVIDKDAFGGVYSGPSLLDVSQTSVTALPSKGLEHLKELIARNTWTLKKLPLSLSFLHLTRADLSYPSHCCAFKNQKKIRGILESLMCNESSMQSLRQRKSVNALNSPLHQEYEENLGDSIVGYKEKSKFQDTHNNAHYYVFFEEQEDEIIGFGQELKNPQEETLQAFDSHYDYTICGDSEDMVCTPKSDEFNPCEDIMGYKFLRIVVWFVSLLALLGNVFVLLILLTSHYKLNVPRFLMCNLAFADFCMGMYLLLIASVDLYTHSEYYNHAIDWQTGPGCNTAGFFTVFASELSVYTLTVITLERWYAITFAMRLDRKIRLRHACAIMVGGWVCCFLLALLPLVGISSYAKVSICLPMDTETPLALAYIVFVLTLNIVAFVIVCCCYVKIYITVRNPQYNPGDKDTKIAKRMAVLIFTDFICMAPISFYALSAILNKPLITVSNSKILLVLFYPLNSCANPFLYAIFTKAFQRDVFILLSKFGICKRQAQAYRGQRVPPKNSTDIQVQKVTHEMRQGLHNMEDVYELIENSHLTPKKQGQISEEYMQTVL

Question: Which EC50 [1] does the source give for `CC[C@H](C)[C@H](N)C(=O)N[C@@H](CCC(=O)O)C(=O)N[C@@H](CCCNC(=N)N)C(=O)N[C@@H](CCCNC(=N)N)C(=O)N[C@@H](CCC(=O)O)C(=O)N[C@@H](CS)C(=O)N[C@@H](C)C(=O)N[C@@H](Cc1ccc(O)cc1)C(=O)N[C@@H](CS)C(=O)N[C@@H](CC(C)C)C(=O)N[C@H](C(=O)N[C@H](C(=O)N[C@@H](CC(N)=O)C(=O)N[C@H](C(=O)N[C@H](C(N)=O)[C@@H](C)O)[C@@H](C)O)[C@@H](C)CC)[C@@H](C)O` [β11-25] (H-IERRECAYCLTINTT-NH2) here?
Answer: > 1000 µM

Question: What about the “Inhibition of TSH binding to human thyroid membrane (in words)” value [1] of the same compound?
Answer: inactive

Question: What about the EC50 [2] of the same compound?
Answer: 186 ± 28 µM

Question: Which results are given for `CC[C@H](C)[C@H](NC(=O)[C@H](Cc1ccccc1)NC(=O)[C@H](CC(=O)O)NC(=O)[C@H](CCCNC(=N)N)NC(=O)[C@H](Cc1ccc(O)cc1)NC(=O)[C@@H](NC(=O)[C@H](CS)NC(=O)[C@@H](N)C(C)C)[C@@H](C)O)C(=O)N[C@@H](Cc1ccc(O)cc1)C(=O)N[C@@H](CCCNC(=N)N)C(=O)N[C@H](C(=O)N[C@H](C(=O)N[C@@H](CCC(=O)O)C(=O)N[C@H](C(=O)N1CCC[C@H]1C(N)=O)[C@@H](C)CC)C(C)C)[C@@H](C)O` [β51-65] (H-VCTYRDFIYRTVEIP-NH2)?
Answer: EC50 [1]: > 1000 µM; EC50 [2]: > 1000 µM

Question: What does the source list for `CC[C@H](C)[C@H](NC(=O)[C@H](CC(=O)O)NC(=O)[C@H](CCCNC(=N)N)NC(=O)[C@@H](NC(=O)[C@H](CCSC)NC(=O)[C@@H](N)CS)[C@@H](C)O)C(=O)N[C@@H](CC(N)=O)C(=O)NCC(=O)N[C@@H](CCCCN)C(=O)N[C@@H](CC(C)C)C(=O)N[C@@H](Cc1ccccc1)C(=O)N[C@@H](CC(C)C)C(=O)N1CCC[C@H]1C(=O)N[C@@H](CCCCN)C(=O)N[C@@H](Cc1ccc(O)cc1)C(N)=O` [β31-45] (H-CMTRDINGKLFLPKY-NH2)?
Answer: EC50 [1]: 186 ± 25 µM; EC50 [2]: 200 ± 36 µM

Question: Which “Inhibition of TSH binding to human thyroid membrane (in words)” value [1] does the source give for `CC(C)C[C@H](NC(=O)[C@H](C)NC(=O)[C@@H](NC(=O)[C@@H]1CCCN1C(=O)[C@H](Cc1ccc(O)cc1)NC(=O)[C@H](CO)NC(=O)[C@H](Cc1ccccc1)NC(=O)[C@H](Cc1ccc(O)cc1)NC(=O)[C@@H]1CCCN1C(=O)[C@H](C)NC(=O)[C@@H](N)C(C)C)C(C)C)C(=O)N[C@@H](CO)C(=O)N[C@@H](CS)C(=O)N[C@@H](CCCCN)C(=O)N[C@@H](CS)C(N)=O` [β71-85] (H-VAPYFSYPVALSCKC-NH2; N-terminus assumed) here?
Answer: inhibit binding of TSH to human thyroid membrane

Question: And the “Serum samples in which TSab-stimulated cAMP was significantly inhibited (p<0.05) / samples tested” value (FRTL5 cells)?
Answer: 1/5

Question: What about the “Inhibition of TSab-stimulated cAMP generation (in words)” value (FRTL5 cells) of the same compound?
Answer: significant inhibition only at the highest concentration

Question: What about the “Inhibition of TSab-stimulated cAMP generation (in words)” value (FRTL5 cells; listed as 71-85) of the same compound?
Answer: effective only at the highest dose

Question: Which EC50 [1] does the source give for `CC(C)C[C@H](NC(=O)[C@H](C)NC(=O)[C@H](Cc1ccc(O)cc1)NC(=O)[C@H](CCCCN)NC(=O)[C@@H]1CCCN1C(=O)[C@H](CC(C)C)NC(=O)[C@@H](N)Cc1ccccc1)C(=O)N[C@@H](CO)C(=O)N[C@@H](CCC(N)=O)C(=O)N[C@@H](CC(=O)O)C(=O)N[C@H](C(=O)N[C@@H](CS)C(=O)N[C@H](C(=O)N[C@@H](Cc1ccc(O)cc1)C(=O)N[C@@H](CCCNC(=N)N)C(N)=O)[C@@H](C)O)C(C)C` [β41-55] (H-FLPKYALSQDVCTYR-NH2) here?
Answer: 242 ± 58 µM

Question: And the EC50 [2]?
Answer: 216 ± 18 µM

Question: For `CC[C@H](C)[C@H](NC(=O)[C@@H](N)[C@@H](C)O)C(=O)N[C@@H](CC(N)=O)C(=O)N[C@H](C(=O)N[C@H](C(=O)N[C@H](C(=O)N[C@@H](CS)C(=O)N[C@@H](C)C(=O)NCC(=O)N[C@@H](Cc1ccc(O)cc1)C(=O)N[C@@H](CS)C(=O)N[C@@H](CCSC)C(=O)N[C@H](C(=O)N[C@@H](CCCNC(=N)N)C(=O)N[C@@H](CC(=O)O)C(N)=O)[C@@H](C)O)[C@@H](C)CC)[C@@H](C)O)[C@@H](C)O` [β21-35] (H-TINTTICAGYCMTRD-NH2), which EC50 [1] is on record?
Answer: > 1000 µM

Question: And the EC50 [2]?
Answer: > 1000 µM

Question: For `CC[C@H](C)[C@H](NC(=O)[C@H](C)NC(=O)[C@H](CCC(=O)O)NC(=O)[C@H](Cc1c[nH]cn1)NC(=O)[C@@H](NC(=O)[C@H](CS)NC(=O)[C@H](CC(=O)O)NC(=O)[C@H](CO)NC(=O)[C@H](Cc1ccc(O)cc1)NC(=O)[C@@H](N)CC(=O)O)[C@@H](C)CC)C(=O)N[C@@H](CCCCN)C(=O)N[C@H](C(=O)N[C@@H](CC(N)=O)C(=O)N[C@@H](Cc1ccc(O)cc1)C(=O)N[C@@H](CS)C(N)=O)[C@@H](C)O` [β91-105] (H-DYSDCIHEAIKTNYC-NH2; N-terminus assumed), which “Serum samples in which TSab-stimulated cAMP was significantly inhibited (p<0.05) / samples tested” value (FRTL5 cells) is on record?
Answer: 1/12

Question: And the “Inhibition of TSab-stimulated cAMP generation (in words)” value (FRTL5 cells)?
Answer: did not inhibit TSab activity

Question: How did the EC50 [1] turn out when `CC[C@H](C)[C@H](NC(=O)[C@H](CCC(=O)O)NC(=O)[C@@H](NC(=O)[C@@H](N)[C@@H](C)O)C(C)C)C(=O)N1CCC[C@H]1C(=O)NCC(=O)N[C@@H](CS)C(=O)N1CCC[C@H]1C(=O)N[C@@H](CC(C)C)C(=O)N[C@@H](Cc1c[nH]cn1)C(=O)N[C@H](C(=O)N[C@@H](C)C(=O)N1CCC[C@H]1C(=O)N[C@@H](Cc1ccc(O)cc1)C(=O)N[C@@H](Cc1ccccc1)C(N)=O)C(C)C` [β61-75] (H-TVEIPGCPLHVAPYF-NH2) was run?
Answer: > 1000 µM

Question: What about the EC50 [2] of the same compound?
Answer: > 1000 µM
